Measured values published in patent US8563738B2, “Ligands for copper-catalyzed azide-alkyne cycloaddition reactions” (The Scripps Research Institute, priority 2007, dated 2013).
“Also recorded” adds a separate entry of the source.

How the values were obtained:
[1] = Ligand screening by reaction calorimetry (peak reaction power); design: key to calorimetry ligand category: reactions that failed to produce a signal in the calorimeter were classified as identifying “inactive” ligands; moderate: give observable, but not very strong, calorimetry signals; conditions: 65° C.
Text: Reaction calorimetry was used to evaluate the relative merits of various ligands under practical conditions of organic synthesis, e.g., involving high concentrations of azide and alkyne reagents and low loadings of catalyst. After correction for instrumental heat transfer parameters, thermograms provide a direct real-time measure of reaction rate (power output); integration gives the overall time-vs.-completion curve. […] All such measurements were made in the same 4:1 DMSO:aqueous solvent as before, but at 65° C. rather than room temperature, in order to keep the product triazole in solution at the higher concentrations used.
Calorimetry was performed in an Omnical INSIGHT® 10-channel reaction calorimeter using 40 mL glass vials. In a typical run all the reaction components but one were introduced into the vials inside an inert atmosphere glovebox, and vials were sealed with septum caps. The last reaction component to be added was placed in a Hamilton gastight syringe. The vials and syringes were then allowed to equilibrate inside the preheated instrument (65° C.) for 30 minutes. The reaction was started in all vials by depressing all of the syringes simultaneously. Two vials out of ten were charged only with solvent to obtain readings allowing for compensation for the heat of mixing. The thermograms registered in these two channels upon addition of the last component were used to construct the baseline for the other 8 channels.
Since heat is not transferred to the instrument sensor instantaneously, the thermogram registered by the instrument is dependent on the characteristics of the instrument and reaction vessel. Correction for these extraneous factors must be applied to the recorded thermograms to obtain instrument-independent data (Rosner, T.; et al. J. Am. Chem. Soc. 2001, 123, 1848-1855; Liu, J.-S.; et al. Thermochimica Acta 1994, 236, 113-122). The appropriate dynamic correction function is built into the instrument operating software. Use of vendor supplied software produces the same result as manual correction.
By the same token, catalysts such as Cu.1 that give observable, but not very strong, calorimetry signals cannot be fully analyzed by converting thermograms to completion curves, because a significant amount of the total energy output is lost below the detection threshold of the instrument. TBTA (1) falls into this category, classified as “moderate” ligands. […] However, peak power values (i.e., maximum reaction rate) provided a reproducible relative measure of relative catalytic efficiency.
Ligands were screened under the following conditions: 250 mM benzyl azide, 454 mM phenylacetylene, 2 mM CuSO4, 4 mM ligand, 25 mM sodium ascorbate. Phenylacetylene was the last component added. Initial screening was performed with at least two independent trials for each ligand. Candidates showing promising activity were then examined with at least three independent trials to obtain reliable estimations of experimental error.

[2] = Second-order rate constants of CuAAC reaction by LC-MS of quenched aliquots; conditions: 4:1 DMSO:buffer, Tris buffer over a standard range of concentrations

**Q.** What does the source list for c1ccc(Cn2cc(CN(Cc3cn(Cc4ccccc4)nn3)Cc3cn(Cc4ccccc4)nn3)nn2)cc1 [TBTA (1), tris((1-benzyl-1H-1,2,3-triazol-4-yl)methyl)amine, reference compound]?
**A.** calorimetry ligand category ([1]; 250 mM benzyl azide, 454 mM phenylacetylene, 2 mM CuSO4, 4 mM ligand, 25 mM sodium ascorbate): moderate; relative catalytic activity by calorimetry ([1]; high reactant concentrations, 1% Cu, 4:1 DMSO:aqueous): sluggish catalyst compared to many of the others tested; also recorded: lower half of the ligands tested; effect of Tris buffer on rate [2]: slowed significantly
